{
  "source": "ChEMBL document CHEMBL1201862",
  "about": "“PubChem BioAssay data set” (2004)",
  "key": {"[1]": {"molecular_target": "Induced myeloid leukemia cell differentiation protein Mcl-1 (Homo sapiens, UniProt Q07820)", "sequence (Q07820 whole entry)": "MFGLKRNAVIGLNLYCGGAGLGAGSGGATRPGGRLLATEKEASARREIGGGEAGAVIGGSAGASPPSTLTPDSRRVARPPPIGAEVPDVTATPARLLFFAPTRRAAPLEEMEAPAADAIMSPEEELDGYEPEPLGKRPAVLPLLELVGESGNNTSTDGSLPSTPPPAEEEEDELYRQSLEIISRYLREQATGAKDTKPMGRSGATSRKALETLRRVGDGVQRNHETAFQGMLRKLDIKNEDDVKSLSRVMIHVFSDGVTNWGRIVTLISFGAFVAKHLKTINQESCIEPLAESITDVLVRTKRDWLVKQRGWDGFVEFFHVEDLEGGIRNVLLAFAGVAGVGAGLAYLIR", "format": "functional"}, "Protein RecA": {"molecular_target": "T1, Protein RecA (Mycobacterium tuberculosis, UniProt P9WHJ3)", "T1 sequence (P9WHJ3 whole entry)": "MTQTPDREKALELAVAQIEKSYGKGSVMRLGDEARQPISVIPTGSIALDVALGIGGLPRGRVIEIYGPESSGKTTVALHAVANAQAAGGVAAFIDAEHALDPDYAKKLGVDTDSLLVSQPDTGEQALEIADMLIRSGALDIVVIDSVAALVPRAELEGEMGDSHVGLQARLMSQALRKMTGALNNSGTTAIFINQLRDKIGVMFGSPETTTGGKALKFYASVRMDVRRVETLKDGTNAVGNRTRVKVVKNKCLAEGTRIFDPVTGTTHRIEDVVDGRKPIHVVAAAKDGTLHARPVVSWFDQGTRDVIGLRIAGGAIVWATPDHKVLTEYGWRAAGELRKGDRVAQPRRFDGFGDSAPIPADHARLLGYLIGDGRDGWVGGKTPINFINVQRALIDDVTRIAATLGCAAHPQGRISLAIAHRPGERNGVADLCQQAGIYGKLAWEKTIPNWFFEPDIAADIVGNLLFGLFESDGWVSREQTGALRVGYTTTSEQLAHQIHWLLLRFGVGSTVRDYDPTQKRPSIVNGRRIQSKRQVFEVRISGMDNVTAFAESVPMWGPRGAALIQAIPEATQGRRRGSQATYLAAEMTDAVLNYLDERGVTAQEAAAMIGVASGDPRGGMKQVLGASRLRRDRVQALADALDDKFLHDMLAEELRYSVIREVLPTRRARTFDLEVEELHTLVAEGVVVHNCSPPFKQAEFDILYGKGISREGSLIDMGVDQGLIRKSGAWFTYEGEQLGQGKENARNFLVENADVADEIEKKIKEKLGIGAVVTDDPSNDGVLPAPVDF", "assay": "Fluorescence Cell-Free Homogeneous Dose Retest to Identify Inhibitors of RecA-Intein Splicing Activity. [Related pubchem assays (depositor defined):AID2097, AID2223, AID489010, AID492950]", "format": "functional"}, "[2]": {"molecular_target": "Histone-lysine N-methyltransferase NSD2 (Homo sapiens, UniProt O96028)", "sequence (O96028 whole entry)": "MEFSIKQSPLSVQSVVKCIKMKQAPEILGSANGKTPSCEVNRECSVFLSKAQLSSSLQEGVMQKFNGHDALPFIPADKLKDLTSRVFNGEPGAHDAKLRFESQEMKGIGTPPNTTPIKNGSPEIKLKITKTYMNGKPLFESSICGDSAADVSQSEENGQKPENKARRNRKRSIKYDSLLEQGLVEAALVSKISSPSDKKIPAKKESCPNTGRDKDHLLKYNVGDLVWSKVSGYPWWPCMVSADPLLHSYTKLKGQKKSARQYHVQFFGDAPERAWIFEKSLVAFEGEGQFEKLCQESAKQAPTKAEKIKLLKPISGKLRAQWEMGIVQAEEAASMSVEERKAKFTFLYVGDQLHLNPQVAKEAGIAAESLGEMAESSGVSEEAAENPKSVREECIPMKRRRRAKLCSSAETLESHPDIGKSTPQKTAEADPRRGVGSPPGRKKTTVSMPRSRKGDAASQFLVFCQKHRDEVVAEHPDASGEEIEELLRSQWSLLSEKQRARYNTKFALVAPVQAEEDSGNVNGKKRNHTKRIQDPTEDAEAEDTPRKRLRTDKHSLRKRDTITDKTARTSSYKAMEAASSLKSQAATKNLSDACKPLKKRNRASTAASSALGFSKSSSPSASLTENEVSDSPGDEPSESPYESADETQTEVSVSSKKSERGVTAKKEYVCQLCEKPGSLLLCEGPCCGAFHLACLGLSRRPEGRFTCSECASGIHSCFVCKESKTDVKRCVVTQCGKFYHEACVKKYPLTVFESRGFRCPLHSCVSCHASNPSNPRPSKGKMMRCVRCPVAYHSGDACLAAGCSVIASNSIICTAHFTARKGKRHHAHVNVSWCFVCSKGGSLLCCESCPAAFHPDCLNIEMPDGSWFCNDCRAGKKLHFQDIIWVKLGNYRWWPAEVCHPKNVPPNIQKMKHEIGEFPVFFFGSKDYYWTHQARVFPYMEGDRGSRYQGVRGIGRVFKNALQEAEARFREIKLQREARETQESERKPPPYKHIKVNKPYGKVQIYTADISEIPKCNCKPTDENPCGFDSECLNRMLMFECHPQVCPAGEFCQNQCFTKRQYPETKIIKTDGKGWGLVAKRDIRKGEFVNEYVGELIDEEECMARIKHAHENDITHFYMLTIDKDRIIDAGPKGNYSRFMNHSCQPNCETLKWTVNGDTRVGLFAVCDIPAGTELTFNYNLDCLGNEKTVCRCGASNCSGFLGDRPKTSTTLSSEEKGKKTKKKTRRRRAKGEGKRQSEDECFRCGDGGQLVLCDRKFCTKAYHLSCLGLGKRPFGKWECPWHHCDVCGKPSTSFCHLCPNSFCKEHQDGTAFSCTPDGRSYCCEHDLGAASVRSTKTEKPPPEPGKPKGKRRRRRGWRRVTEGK", "format": "biochemical"}, "H9c2": {"test_system": "H9c2", "assay": "cells", "format": "functional, cell-based", "conditions": "Rattus norvegicus, H9c2, Myocardium"}, "Protein S100-A4": {"molecular_target": "Protein S100-A4 (Homo sapiens, UniProt P26447)", "sequence (P26447 whole entry)": "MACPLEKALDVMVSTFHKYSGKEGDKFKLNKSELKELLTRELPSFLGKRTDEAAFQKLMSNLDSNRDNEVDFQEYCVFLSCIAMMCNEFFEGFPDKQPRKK", "assay": "S100A4-myosin IIA binding inhibitor potency, dose response, biochemical, fluorescence polarization, cherry-picked hits (AID 687001)", "format": "functional"}, "[3]": {"assay": "Late stage assay provider results from the probe development effort to identify inhibitors of the Plasmodium falciparum M17 Leucine Aminopeptidase (M17LAP): radiolabel-based cell-based dose response assay to identify compounds that inhibit P. falciparum growth in RBCs Set 2.", "format": "functional"}, "Vero": {"test_system": "Vero", "assay": "Vero cell toxicity, dose response, cytotoxicity control, plate reader, cherry-pick samples (AID 687020)", "format": "functional, cell-based", "conditions": "Chlorocebus sabaeus"}, "BHK-21": {"test_system": "BHK-21", "assay": "BHK-21 cell toxicity, dose response, cytotoxicity control, plate reader, cherry-pick samples (AID 687030)", "format": "functional, cell-based", "conditions": "Mesocricetus auratus"}, "A549": {"test_system": "A549", "assay": "A549 cell toxicity, dose response, cytotoxicity control, plate reader, cherry-pick samples (AID 687028)", "format": "functional, cell-based", "conditions": "Homo sapiens"}, "[4]": {"molecular_target": "Long-chain-fatty-acid--AMP ligase FadD28 (Mycobacterium tuberculosis, UniProt P9WQ59)", "sequence (P9WQ59 whole entry)": "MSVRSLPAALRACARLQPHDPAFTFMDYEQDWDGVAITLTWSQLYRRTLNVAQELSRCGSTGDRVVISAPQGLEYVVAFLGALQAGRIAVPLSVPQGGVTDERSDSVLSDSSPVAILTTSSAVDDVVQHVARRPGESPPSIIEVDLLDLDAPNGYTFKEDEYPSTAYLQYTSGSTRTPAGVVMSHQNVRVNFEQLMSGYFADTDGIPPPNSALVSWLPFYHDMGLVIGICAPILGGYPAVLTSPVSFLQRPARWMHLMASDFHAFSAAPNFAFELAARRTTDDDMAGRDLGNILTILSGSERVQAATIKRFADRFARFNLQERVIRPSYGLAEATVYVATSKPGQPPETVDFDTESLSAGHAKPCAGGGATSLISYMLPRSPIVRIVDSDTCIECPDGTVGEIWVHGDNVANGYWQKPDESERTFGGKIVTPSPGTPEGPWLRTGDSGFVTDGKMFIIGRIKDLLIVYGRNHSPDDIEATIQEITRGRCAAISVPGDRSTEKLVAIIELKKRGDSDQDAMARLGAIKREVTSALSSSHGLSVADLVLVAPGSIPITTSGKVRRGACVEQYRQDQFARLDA", "assay": "Fluorescence polarization aasay to screen for inhibitors that compete for the binding of FadD28 to a bisubstrate Measured in Biochemical System Using Plate Reader - 2147-01_Inhibitor_Dose_CherryPick_Activity.", "format": "functional, Mycobacterium tuberculosis H37Rv"}, "[5]": {"assay": "A549 cell cytotoxicity, dose response, cytotoxicity control, plate reader, cherry-pick, antagonist series (AID 743412)", "format": "functional, cell-based"}, "[6]": {"assay": "LGR2 antagonists, dose response, cell-based, HEK293, CRE-luciferase reporter, cherry pick, set 2 (AID 743343);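 also: transfected cells were stimulated with diluted bursicon conditioned medium after compound addition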", "format": "functional"}, "[7]": {"assay": "MC4R antagonists, dose response, counter-screen for LGR2 antagonist project, cell-based, plate reader, cherry pick (AID 743444);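 also: transfected HEK 293 cells stimulated with alpha-MSH peptide; potency of inhibitors of the alpha-MSH evoked signal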", "format": "functional"}, "HeLa": {"test_system": "HeLa", "assay": "HeLa cell cytotoxicity, dose response, cytotoxicity control, ATP luminescence, cherry-pick samples (AID 687004)", "format": "functional, cell-based", "conditions": "Homo sapiens"}, "HepG2": {"test_system": "HepG2", "assay": "HepG2 Cytotoxicity Assay Measured in Cell-Based System Using Plate Reader - 7071-02_Inhibitor_Dose_CherryPick_Activity.", "format": "functional", "conditions": "Homo sapiens"}},
  "note": "The source made the active and inactive calls.",
  "data": [
    {"smiles": "CCOC(=O)C1CCN(c2nc(N)c3c(N)nc(SCC(=O)O)cc3c2C#N)CC1", "values": [
      {"measurement": "IC50", "setting": "[1]", "value": "4.87 µM (active)"},
      {"measurement": "EC50", "setting": "Protein RecA", "value": "> 380 µM (inactive)"},
      {"measurement": "AC50", "setting": "[2]", "value": "6.04 µM (active)"}
    ]},
    {"smiles": "O=C1C=C(N2CCOCC2)c2cccc3cccc1c23", "values": [
      {"measurement": "IC50", "setting": "H9c2", "value": "18.2 µM (active)"},
      {"measurement": "AC50", "setting": "Protein S100-A4", "value": "4.83 µM (active)"}
    ]},
    {"smiles": "CCCCOc1ccc(C(C)C(=O)NO)cc1", "note": "(stereo not given)", "values": [
      {"measurement": "IC50", "setting": "[3]", "value": "12.9 µM (inactive)"}
    ]},
    {"smiles": "COc1ccc(-c2cn(CC[C@@H]3CC[C@H](NC(=O)Nc4ccc(F)cc4)[C@H](CO)O3)nn2)cc1", "values": [
      {"measurement": "AC50", "setting": "Vero", "value": "24.2 µM (active)"},
      {"measurement": "AC50", "setting": "BHK-21", "value": "38.8 µM (active)"},
      {"measurement": "AC50", "setting": "A549", "value": "21.3 µM (active)"}
    ]},
    {"smiles": "Cc1ccc(CSCCNC(=O)c2ccc(N(C)S(=O)(=O)c3ccccc3)cc2)cc1", "values": [
      {"measurement": "AC50", "setting": "[4]", "value": "7.13 µM (active)"}
    ]},
    {"smiles": "O=C(NCCc1ccc(Cl)cc1)c1ccc2c(c1)OCCO2", "values": [
      {"measurement": "AC50", "setting": "[5]", "value": "> 52 µM (inactive)"},
      {"measurement": "AC50", "setting": "[6]", "value": "20.1 µM (active)"},
      {"measurement": "AC50", "setting": "[7]", "value": "21.2 µM (active)"}
    ]},
    {"smiles": "CN(C[C@H]1N[C@@H](CO)[C@H]1c1ccc(-c2cccc(F)c2)cc1)S(C)(=O)=O", "values": [
      {"measurement": "AC50", "setting": "HeLa", "value": "20.3 µM (active)"},
      {"measurement": "AC50", "setting": "HepG2", "value": "23.7 µM (active)"}
    ]}
  ]
}
